The results in this text go back to PMC6523531, “Mechanistic Studies on the Absorption-Enhancing Effects of Gemini Surfactant on the Intestinal Absorption of Poorly Absorbed Hydrophilic Drugs in Rats” (Pharmaceutics, 2019).

The structures appear in SMILES notation.

For one series, the system named is Caco-2 cell monolayers. The experiment in a line: Transepithelial electrical resistance (TEER) of Caco-2 cell monolayers. In kind it is cell-based, Human. The protocol: Caco-2 cells (passage 45) were cultured in 175-cm^2 culture flask (Thermo Fisher Scientific™, Waltham, MA, USA). The culture medium consisted of DMEM containing 10% FBS, 0.1 mM MEM–NEAA, 2 mM glutamine, 100 U/mL penicillin, and 100 µg/mL streptomycin [30]. Cells were cultured in a humidified atmosphere of 5% CO2 at 37 °C. The culture medium was changed every two days. When the cultured Caco-2 cells became sub-confluent, they were seeded onto 12-mm Transwell® with 0.4-µm pore polycarbonate membrane inserts (Corning Inc., New York, NY, USA) at a density of 1 × 10^5 cells/insert. The transepithelial transport studies were performed when the transepithelial electrical resistance (TEER) values were more than 500 Ω·cm^2 (i.e., after 21 days). Briefly, after removing the incubation medium by aspiration, the apical and basal sides were washed thrice by Hank’s Balanced Salt (HBSS) solution (pH 7.4). The cells were incubated in HBSS (pH 6.0) for the apical side and HBSS (pH 7.4) for the basal side for 20 min at 37 °C. HBSS supplemented with 1 mg/mL glucose was used in all cell culture experiments. After removing the washing solution by aspiration, 500 µL of 10 µM CF in a HBSS (pH 6.0) solution with or without various concentrations (0.001% v/v, 0.01% v/v, 0.025% v/v, 0.05% v/v, and 0.1% v/v) of SLG-30, 0.1% (w/v) and 1% (w/v) NaGC or 0.05% (w/v) sodium laurate were added to the apical side at zero time, whereas precisely 1500 µL of HBSS (pH 7.4) was added to the basal side at 37 °C. The cells were kept at 37 °C and 5% CO2 and were continuously agitated on a shaker during the transport experiments.
The TEER values were measured by Millicell® (ERS-2 Volt-Ohm Meter, Billerica, MA, USA) at the predetermined times up to 24 h, and the initial values were considered as 100%. The samples from the basal side were withdrawn at predetermined time points up to 24 h. The samples were replaced with an equal volume of HBSS (pH 7.4). CF was determined as previously mentioned. The apparent permeability coefficients Papp (cm/s) for the transported CF was determined by the following equation: Papp=dXR/dt×1/A×1/C0 where Papp is the apparent permeability coefficient in centimeters per second, XR is the amount of CF in moles in the receptor side, dXR/dt is the flux across the monolayer, A is the diffusion area (i.e., in square centimeters), and C0 is the initial concentration of CF in the donor side in moles per milliliter.

Another series concerns Caco-2 cells. The experiment in a line: Caco-2 cell damage by LDH release. In kind it is cell-based, Human. As to the method: After the transport studies were over, the solution on the apical side of each well was collected. Cell injury caused by SLG-30 was determined by tracking the LDH release. The cell precipitate and the monolayers left on the filters were solubilized with 1% (v/v) Triton X-100. The solutions from apical sides and the lysates were centrifuged for 7 min at 200× g at a temperature of 4 °C. The activities of LDH in the supernatant were measured. (LDHrelease) stands for the activity of the LDH released into the apical side in the existence of SLG-30. (LDHcell) stands for the activity of the LDH obtained from the cell lysate. LDHreleased% was calculated by the following equation:LDHrelease% = LDHrelease × 100/(LDHrelease + LDHcells)
On the technique in general: LDH leaks from cells whose membrane has failed.

For another series, the system named is claudin-1. The experiment in a line: Western blotting of claudin-1 in rat small intestine after in situ treatment. It counts as in vivo. Particulars: treatment with 0.5% (v/v) SLG-30 for 1 h, vs control. The protocol: Western blotting was performed by the method described previously with slight modifications. Three male Wistar rats weighing 250 g were prepared to perform an in situ closed-loop method on the small intestine, as mentioned above. A control study, a treatment study, and a pretreatment study were conducted on the first, second, and third rat, respectively. For the control study, only PBS solution (pH 7.4) was administered into the small intestine, and then, the rat was sacrificed, while for the treatment study, SLG-30 was administered for 1 h, and then, the rat was sacrificed without washing the SLG-30 out. The pretreatment study was performed by administrating SLG-30 for 1 h then washing it out with PBS solution (pH 7.4), followed by sacrificing the rat after 4 h. The small intestine (60 cm) of three rats was taken and treated, as mentioned above, for extracting the BBMVs. […]
The expression levels of proteins from the claudin family, in the homogenate of the small intestine membrane, were evaluated by western blotting. […] The signals were visualized by luminescence imaging (Fujifilm Luminescent Image Analyzer LAS4000 System, Tokyo, Japan). The intensity of each signal was corrected using the values obtained from the β-actin bands, and the relative protein intensity was expressed as the fold change compared to the relative protein intensity in the normal group.
(In western blotting, separated proteins are transferred to a membrane and probed.)

With `CCCCCCCCCCCC(=O)NC(CCC(=O)NCCCCC(NC(=O)CCC(NC(=O)CCCCCCCCCCC)C(=O)O)C(=O)O)C(=O)O` (stereo not drawn) [SLG-30, sodium dilauramidoglutamide lysine], in the series on Caco-2 cell monolayers (SLG-30 at all concentrations 0.001-0.1% (v/v), first hour), the TEER values entry is recorded as “significant decrease”. The TEER recovery entry is reported as “did not recover to the baseline” in the series with Caco-2 cell monolayers (higher concentrations of SLG-30, without removing SLG-30, up to 24 h) and “started to recover” with Caco-2 cell monolayers (lower concentrations of SLG-30, without removing SLG-30, up to 24 h). In addition, the “activity of LDH released from Caco-2 cells vs control” value in the series on Caco-2 cells (SLG-30 0.001-0.1% (v/v), after the transport studies, n = 6) is “did not increase”. Further, in the series on Caco-2 cells (SLG-30 at concentrations used in in vivo studies), the Caco-2 cell injury entry was “the cells were detached and severely injured”. In the series with claudin-1, the “decrease of the intensity of the claudin-1 band” value was 57%.
